# Experimental data published in patent publication US20240336657A1, “G-ALPHA-S PEPTIDE INHIBITORS AND USES THEREOF” (The Regents of the University of California, priority 2021, published 2024).
# Positions of bridges follow the written chain, without caps; N, C: chain ends. Non-standard residues stand in square brackets, D forms with d. Residues, ends and D or L forms follow the SMILES beside them.
# Assays:
# [1] = target: Gαs (Homo sapiens, UniProt P63092); test: GTPγS binding assay ([35S]GTPγS); type: biochemical; set-up: made in house; host or cells: Escherichia coli BL21(DE3)
# Sequence of Gαs (P63092 1-380 isoform P63092-2): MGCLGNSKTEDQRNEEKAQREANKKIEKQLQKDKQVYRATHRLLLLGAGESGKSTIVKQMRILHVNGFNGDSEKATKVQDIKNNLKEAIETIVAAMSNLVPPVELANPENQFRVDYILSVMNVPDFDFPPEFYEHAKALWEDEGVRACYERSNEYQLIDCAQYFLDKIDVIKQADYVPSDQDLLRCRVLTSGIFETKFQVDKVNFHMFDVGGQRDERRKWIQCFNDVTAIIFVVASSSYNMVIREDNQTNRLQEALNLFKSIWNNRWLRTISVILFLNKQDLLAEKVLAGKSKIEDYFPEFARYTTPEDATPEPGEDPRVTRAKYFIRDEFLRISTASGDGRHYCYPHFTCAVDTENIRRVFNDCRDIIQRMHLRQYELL
# Protocol: Gα proteins were diluted to 10 μM with dilution buffer (20 mM HEPES 7.5, 150 mM NaCl, 1 mM MgCl2, 2 mM DTT, and 20 μM GDP) and incubated with 5× stocks of cyclic peptides at room temperature for 2 hours. GTPγS binding was initiated by mixing with the reaction buffer at room temperature (50 nM [35S]GTPγS and 100 μM GTPγS in dilution buffer) at room temperature. At various time points, 10 μL of the sample was removed and mixed with 390 μL of ice-cold wash buffer (20 mM HEPES 7.5, 150 mM NaCl, 20 mM MgCl2). The mixture was filtered through a mixed cellulose membrane (25 mm, 0.22 μm). The membrane was washed by ice-cold wash buffer (500 μL×3), put in a 6-mL plastic vial and air-dried (room temperature 1.5 h). 5 mL of CytoScint-ES Liquid Scintillation Cocktail (MP Biomedicals) was added to each vial. After incubation overnight at room temperature, the vial was used for liquid scintillation counting with a LS 6500 Multi-Purpose Scintillation Counter. A standard curve was generated using [35S]GTPγS. The radioactive activity (Counts per minute) of the samples were converted to the GTPγS concentration. The GTPγS binding curves were fitted by the software GraphPad Prism using the following equation to calculate the apparent GTPγS binding rates (kapp): […]
# in which “Y” is the concentration of GTPγS that bound to Gα protein at time “X” (minutes).
# [2] = target: Gαs S275L (Homo sapiens, UniProt P63092, S275L); test: Adenylyl cyclase activation assay in the presence of Gβ1/γ2; type: biochemical; set-up: made in house; host or cells: Escherichia coli BL21(DE3) (Gαs, VC1, IIC2); Sf9 insect cells (Gβ1/Gγ2); settings: 6.25 μM of GN13
# Sequence of Gαs S275L (P63092 7-380 isoform P63092-2 S261L limits assumed): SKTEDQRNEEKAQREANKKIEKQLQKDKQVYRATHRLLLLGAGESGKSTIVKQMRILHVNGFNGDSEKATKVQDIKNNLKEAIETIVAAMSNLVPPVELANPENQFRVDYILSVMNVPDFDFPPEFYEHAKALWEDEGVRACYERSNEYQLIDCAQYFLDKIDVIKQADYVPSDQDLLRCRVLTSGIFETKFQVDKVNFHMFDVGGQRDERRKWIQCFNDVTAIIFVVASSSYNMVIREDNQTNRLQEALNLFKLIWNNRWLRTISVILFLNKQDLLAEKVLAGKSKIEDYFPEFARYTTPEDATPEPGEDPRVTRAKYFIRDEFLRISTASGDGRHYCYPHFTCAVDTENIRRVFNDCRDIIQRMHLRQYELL
# Protocol: GN13 inhibition of Gαs proteins at various concentrations (FIG. 18E).
# WT Gαs and S275L mutant at a concentration of 8.5 mg/mL (about 190 μM) in 20 mM HEPES 8.0, 150 mM NaCl, 5 mM MgCl2, 1 mM EDTA-Na 8.0 were diluted to a series of concentrations (4 μM, 1.33 μM, 0.44 μM, 0.15 μM, 49.4 nM, 16.5 nM, 5.5 nM, 0 nM) in dilution buffer (1×PBS 7.4, 0.1% BSA, 1 mM EDTA-Na 8.0, 2 mM DTT, 0.1 mM MgCl2) plus 1 mM GppNHp. After incubation at room temperature for 1 hour to allow nucleotide exchange, 2.5 μL of each sample was then mixed with 1 μL of MgCl2 stock (20 mM MgCl2, 1× PBS 7.4, 0.1% BSA) in an OptiPlate-384, White Opaque 384-well Microplate. 2 μL of adenylyl cyclase/Gβγ stock (2 μM VC1, 2 nM IIC2, 150 μM FSK, 1× PBS 7.4, 0.1% BSA, 10 μM Gβ1/γ2(C68S)) was added, followed by addition of 2.5 μL 25 μM GN13 stock in 1× PBS 7.4, 0.1% BSA. […] The cAMP concentrations were measured by the LANCE Ultra cAMP kit. […]
# A cAMP standard curve was generated in the same plate using the 50 μM cAMP standard in the kit. […] 10 μL of each diluted sample was mixed with 5 μL of 4× Eu-cAMP tracer and 5 μL of 4× ULight-anti-cAMP in a white, opaque Optiplate-384 microplate, incubated for 1 hour at room temperature, and the time-resolved fluorescence resonance energy transfer (TR-FRET) signals were read on a Spark 20M plate reader. […]
# [3] = target: T1, GDP-bound Gαi1 (Homo sapiens, UniProt P63096); test: Bio-layer interferometry (BLI) binding; settings: highest concentration tested
# T1 construct: hexahistidine (N, cleaved yes); made in house; host or cells: Escherichia coli BL21(DE3)
# T1 sequence (P63096 with tags, fused parts or gaps): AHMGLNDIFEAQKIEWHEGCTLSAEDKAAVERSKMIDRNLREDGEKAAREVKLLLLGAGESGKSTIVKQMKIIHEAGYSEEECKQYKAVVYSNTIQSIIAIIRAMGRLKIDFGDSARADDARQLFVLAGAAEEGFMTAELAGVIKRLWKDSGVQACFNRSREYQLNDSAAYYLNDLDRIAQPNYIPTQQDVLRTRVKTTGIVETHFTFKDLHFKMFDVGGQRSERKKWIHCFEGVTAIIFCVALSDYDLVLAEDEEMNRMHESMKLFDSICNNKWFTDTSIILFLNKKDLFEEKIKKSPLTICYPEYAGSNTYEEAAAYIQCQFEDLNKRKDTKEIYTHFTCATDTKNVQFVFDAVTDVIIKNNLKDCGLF
# Protocol: (§1) BLI experiments were performed using an OctetRED384 instrument from ForteBio. All experiments were performed at 25° C. using BLI buffer (10 mM HEPES pH 7.4, 150 mM NaCl, 1 mM MgCl2, 0.05% Tween-20, 0.1% DMSO, 0.2 mM GppNHp or GDP). Cyclic peptides were diluted to a series of concentrations in BLI buffer plus 10 μM Biotin. Assays were conducted in Greiner 384well, black, flat bottom polypropylene plates containing the protein solutions, BLI buffer plus 10 μM Biotin for dissociation, and serial dilutions of cyclic peptides to be tested.
# (§2) Biotinylated proteins were immobilized on Streptavidin biosensors by dipping sensors into plate wells containing protein solutions at a concentration of 100-150 nM. Protein loading is around 2-3 nm. Sensors loaded with proteins were moved and dipped into wells with BLI buffer plus 10 μM Biotin to block unlabeled Streptavidin. Association-dissociation cycles of compounds were started by moving and dipping sensors to cyclic peptides dilutions and BLI buffer plus 10 μM Biotin wells alternatively. Association and dissociation times were carefully determined to ensure full association and dissociation.
# (§3) Raw kinetic data collected were processed with the Data Analysis software provided by the manufacturer using single reference subtraction in which buffer-only reference was subtracted (For GN13 analysis). Because GD20 analogs have a low level of background binding, we used a double reference subtraction (buffer-only reference and non-protein-loading reference) method to calculate their kinetics values. The resulting data were analyzed based on a 1:1 binding model from which kon and koff values were obtained and then Kd values were calculated.
# [4] = target: T2, GppNHp-bound Gαi1 (Homo sapiens, UniProt P63096); test: Bio-layer interferometry (BLI) binding; settings: highest concentration tested
# T2 construct: hexahistidine (N, cleaved yes); made in house; host or cells: Escherichia coli BL21(DE3)
# T2 sequence (P63096 with tags, fused parts or gaps): as above
# Protocol: as §1, §2, §3
smiles,measurement,setting,value
CC[C@H](C)[C@@H]1NC(=O)[C@H](C)NC(=O)[C@H](Cc2ccc(O)cc2)NC(=O)[C@H](C(C)C)NC(=O)[C@H](CO)NC(=O)[C@H](CCC(=O)O)NC(=O)[C@H](Cc2ccccc2)NC(=O)[C@@H](Cc2ccc(O)cc2)NC(=O)CSC[C@@H](C(=O)NCC(N)=O)NC(=O)[C@H](CC(C)C)NC(=O)[C@H]([C@@H](C)O)NC(=O)CNC(=O)[C@H](Cc2c[nH]c3ccccc23)NC1=O [GN13] ({CH2CO}-[dY]FESVYAIWGTLCG-NH2; thioether N-13),effect on the apparent rate of GTPγS binding (kapp) to Gαs,[1],increased
same,inhibition of adenylyl cyclase activation by Gαs S275L,[2],resistant to GN13 inhibition
same,binding to GDP-bound Gαi1,[3],no detectable binding
same,binding to GppNHp-bound Gαi1,[4],no detectable binding
